Results reported in PubChem BioAssay (NCI).
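48-hour exposure; five concentrations; linearly interpolated endpoints. TGI: total growth inhibition.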

Columns and labels:
Assay in all cases: NCI-60 cell line screen, 48 h
[1] = tested on: HOP-18 NSCLC
[2] = tested on: DLD-1 colon
[3] = tested on: DMS 114 small cell lung
[4] = tested on: LXFL 529 NSCLC
[5] = tested on: KM20L2 colon
[6] = tested on: M19-MEL melanoma
[7] = tested on: SNB-78 CNS
[8] = tested on: RXF-631 renal
[9] = tested on: XF 498 CNS

| Compound | TGI [1] | TGI [2] | TGI [3] | TGI [4] | TGI [5] | TGI [6] | TGI [7] | TGI [8] | TGI [9] |
| --- | --- | --- | --- | --- | --- | --- | --- | --- | --- |
| Clc1ccc(CCn2cncn2)cc1 | > 100 µM | > 100 µM | > 100 µM | > 100 µM | > 100 µM | > 100 µM | > 100 µM | – | – |
| O=C(O)COc1ccc(C(=O)/C(SS/C(C(=O)c2ccc(OCC(=O)O)c(Cl)c2Cl)=C2\C=C(c3ccc(Cl)cc3)SS2)=C2/C=C(c3ccc(Cl)cc3)SS2)c(Cl)c1Cl | 23 µM | 24.6 µM | – | 14.4 µM | 54.5 µM | 20.6 µM | 25.5 µM | > 100 µM | – |
| O=c1c2ccccc2nc2n1-c1ccccc1SC2 | – | > 100 µM | > 100 µM | > 100 µM | > 100 µM | > 100 µM | > 100 µM | > 100 µM | 91.3 µM |
| O=C1NC(=O)C(C(=O)C(=O)Nc2ccc(Cl)cc2Cl)C(=O)N1 | – | > 100 µM | > 100 µM | > 100 µM | > 100 µM | > 100 µM | > 100 µM | > 100 µM | – |
| Cc1nc(N2N=C(c3ccc(Cl)cc3)CCC2=O)sc1[N+](=O)[O-] | > 100 µM | > 100 µM | > 100 µM | > 100 µM | > 100 µM | > 100 µM | > 100 µM | – | > 100 µM |
| O=C1C=CC(=O)c2c1ccc1c3ccccc3n(-c3ccccc3)c21 | 20.7 µM | 6.99 µM | 40.4 µM | 10.9 µM | 36.9 µM | 36.1 µM | 53.8 µM | 82.2 µM | 20.1 µM |
| O=C(c1nc2ccccc2[nH]c1=O)C(O)c1ccco1 (stereo unspecified) | – | – | > 100 µM | > 100 µM | > 100 µM | > 100 µM | > 100 µM | – | > 100 µM |
| CCOC(=O)C(C(=O)OCC)c1ccc([N+](=O)[O-])o1 | 34.2 µM | 18.6 µM | – | 11.2 µM | 36.8 µM | 33.2 µM | 34.8 µM | – | 31 µM |
| N#CC1=C(c2ccccc2)C(=C2Nc3ccccc3N2)C2S/C(=C\c3ccccc3)C(=O)N2C1=N (stereo unspecified) | – | 12 µM | 4.64 µM | 10.8 µM | 6.56 µM | 7.97 µM | 6.86 µM | – | 5.57 µM |
| O=C(Nc1cccc(C(F)(F)F)c1)C(=O)C1NC(=S)NC1=O (stereo unspecified) | > 100 µM | > 100 µM | > 100 µM | > 100 µM | > 100 µM | > 100 µM | > 100 µM | – | – |
| NC(=O)/C(=N\NC(=O)C[n+]1ccccc1)C1NC(=O)NC1=O (stereo unspecified) | > 100 µM | > 100 µM | > 100 µM | > 100 µM | > 100 µM | > 100 µM | > 100 µM | > 100 µM | > 100 µM |
| Cc1ccc(C(c2c(O)c3ccccc3n(-c3ccccc3)c2=O)c2c(O)c3ccccc3n(-c3ccccc3)c2=O)cc1 | > 100 µM | > 100 µM | > 100 µM | > 100 µM | > 100 µM | > 100 µM | > 100 µM | – | > 100 µM |
| O=C1CC2(CCC3=C(O2)c2ccccc2NC(=O)C3)C(=O)c2ccccc2N1 (stereo unspecified) | – | – | > 100 µM | > 100 µM | > 100 µM | > 100 µM | > 100 µM | – | > 100 µM |
| O=C1C=CC2(C=C1)CCNC1=C2C(=O)c2ccccc2C1=O | – | > 100 µM | > 100 µM | > 100 µM | > 100 µM | > 100 µM | – | > 100 µM | > 100 µM |
| N#Cc1cc([N+](=O)[O-])ccc1NC(=O)/C(=N\NC(=O)c1ccncc1)C(c1cnc2ccc([N+](=O)[O-])cc2n1)[N+](=O)[O-] (stereo unspecified) | 2.87 µM | – | 3.1 µM | 3.81 µM | 25.1 µM | 1.69 µM | 21.6 µM | 5.13 µM | 3.17 µM |
